Source: publication PMC10459710 (Viruses, 2023)
pIC50: −log10 of the molar value.

What was measured:
[1] = CellTiter-Glo cell viability assay in Vero cells; assay type: cell-based, African green monkey; conditions: African green monkey, 72 h exposure
HSV-1 [2] = assay: Cytopathic effect; assay type: cell-based, Herpes simplex virus type 1 (strain H129); conditions: for pIC50: 48 h; for Selective Index: SI = CC50/IC50, CPE reduction assay, Vero cells
Vero cells = assay: CellTiter-Glo cell viability assay in Vero cells; assay type: cell-based, African green monkey; conditions: 72 h exposure
HCMV = test system: HCMV; design: method as in earlier work; conditions: cited from earlier work
HSV-1 [3] = assay: Plaque reduction assay (viral titer in supernatant), HSV-1-infected Vero cells; assay type: cell-based, Herpes simplex virus type 1 (strain H129); conditions: for Viral titer: HSV-1 MOI 0.01, 48 h, supernatant
HSV-1 [4] = assay: Plaque reduction assay, HSV-1-infected HepG2 cells; assay type: cell-based, Herpes simplex virus type 1 (strain H129); conditions: Human alphaherpesvirus 1, HSV-1 MOI 0.01, HepG2 cells, 48 h
HSV-1 [5] = assay: Plaque reduction assay, HSV-1-infected Hela cells; assay type: cell-based, Herpes simplex virus type 1 (strain H129); conditions: Human alphaherpesvirus 1, HSV-1 MOI 0.01, Hela cells, 48 h
[6] = CellTiter-Glo cell viability assay in HepG2 cells; assay type: cell-based; conditions: human, 72 h exposure
[7] = CellTiter-Glo cell viability assay in Hela cells; assay type: cell-based; conditions: human, 72 h exposure
HSV-2 = assay: Anti-HSV-2 activity in Vero cells by plaque assay; assay type: cell-based, Herpes simplex virus type 2 (strain G); conditions: HSV-2, Vero cells
HSV-1 [8] = assay: Time-of-addition assay, HSV-1 in Vero cells, plaque assay readout; assay type: cell-based, Herpes simplex virus type 1 (strain H129)
HSV-1 [9] = assay: Virus attachment assay (IFA, anti-gD); assay type: cell-based, Herpes simplex virus type 1 (strain H129); conditions: BMS at 0.5, 5, and 50 µM, 4 °C, MOI 10
HSV-1 [10] = assay: Virus entry assay (IFA, anti-ICP5); assay type: cell-based, Herpes simplex virus type 1 (strain H129)
HSV-1 IE, E, and L genes = assay: HSV-1 IE, E and L gene expression (qRT-PCR and Western blot) in Vero cells; assay type: cell-based, Herpes simplex virus type 1 (strain H129)
HSV-1 DNA = assay: Intracellular and virion-associated HSV-1 DNA levels by real-time PCR; assay type: cell-based, Herpes simplex virus type 1 (strain H129); conditions: Vero cells, MOI 0.01, 24 h, qPCR
HSV-1 [11] = assay: BMS treatment during different time periods of the HSV-1 life cycle; assay type: cell-based, Herpes simplex virus type 1 (strain H129)
cyclin B-dependent CDK1 = conditions: read-out: in vitro IC50; cited from earlier work
cycle E-dependent CDK2 = conditions: read-out: in vitro IC50; cited from earlier work
[12] = Human alphaherpesvirus 1, HSV-1 MOI 0.01, Vero cells, CPE reduction, ND = Not detectable, read-out: IC50

CC[C@H](CO)Nc1nc(NCc2ccccc2)c2ncn(C(C)C)c2n1 [Seliciclib] showed a CC50 at 72 h [1] of 18.5 µM.
For Nc1nc2c(ncn2COCCO)c(=O)[nH]1 [Acyclovir, acyclovir], the pIC50 (HSV-1 [2]; [12]) was 6.38, the “Selective Index” value (HSV-1 [2]) was over 238.10 and the CC50 at 72 h [1] was over 100 µM.
With O=C1NC(=NCc2cccs2)S/C1=C\c1ccc2ncccc2c1 [Ro-3306] the CC50 (Vero cells) was 14.1 µM.
For CCn1cnc2c(Nc3cccc(Cl)c3)nc(N[C@@H]3CCCC[C@@H]3N)nc21 [CGP74514A], the “reduction of HCMV replication compared with untreated controls” value (HCMV) is listed as ~ 300 fold.
With CN(C)C/C=C/C(=O)Nc1cccc(C(=O)Nc2cccc(Nc3ncc(Cl)c(-c4c[nH]c5ccccc45)n3)c2)c1 [THZ2] the CC50 (Vero cells) was 0.42 µM.
For COC(=O)[C@]1(Cc2ccc(O)c(CC=C(C)C)c2)OC(=O)C(O)=C1c1ccc(O)cc1 [Butyrolactone I], the CC50 at 72 h [1] was 151 µM.
CCN1CCN(Cc2ccc(Nc3ncc(F)c(-c4cc(F)c5nc(C)n(C(C)C)c5c4)n3)nc2)CC1 [Abemaciclib] showed a CC50 at 72 h [1] of 29.1 µM.
For CN1CC[C@H](c2c(O)cc(O)c3c(=O)cc(-c4ccccc4Cl)oc23)[C@H](O)C1 [Flavopiridol], the CC50 at 72 h [1] was 0.16 µM.
With CC(C)[C@H](CO)Nc1nc(Nc2ccc(C(=O)O)c(Cl)c2)c2ncn(C(C)C)c2n1 [Purvalanol B] the CC50 at 72 h [1] was 73.5 µM.
With Cc1n[nH]c2ncc(C(=O)N3CCC[C@H]3c3ccc(Cl)cc3)cc12 [MSC2530818] the pIC50 (HSV-1 [2]; [12]) was 4.60, the “Selective Index” value (HSV-1 [2]) was 5.54 and the CC50 at 72 h [1] was 138 µM.
With CC(=O)Nc1cc(Oc2ccc3c(C(=O)Nc4ccc(CN5CCN(C)CC5)c(C(F)(F)F)c4)cccc3c2)ncn1 [BGG463] the CC50 (Vero cells) was 18.5 µM.
Molecule C=CS(=O)(=O)c1ccc(Nc2nc(OCC3CCCCC3)c3[nH]cnc3n2)cc1 [NU6300] has a CC50 (Vero cells) of 13.8 µM.
For CCc1cnn2c(NCc3ccc[n+]([O-])c3)cc(N3CCCC[C@H]3CCO)nc12 [Dinaciclib], the CC50 at 72 h [1] was 1.13 µM.
COc1ccccc1-c1cc(Nc2cccc(CS(N)(=O)=O)c2)ncn1 [LDC000067] gave a CC50 (Vero cells) of 14.4 µM.
Work on Nc1cc(Nc2ccc(S(N)(=O)=O)cc2)ncn1 [PNU112455A] yielded a CC50 (Vero cells) of 156 µM.
For CCCCOc1c(C(=O)c2c(F)cc(C)cc2F)c[nH]c2nncc1-2 [BMS-265246], the pIC50 (HSV-1 [2]; Human alphaherpesvirus 1, Vero) was 7.10, the “Selective Index” value (HSV-1 [2]) was over 6250 and the CC50 at 72 h [1] was over 500 µM. For the same molecule, the Viral titer (HSV-1 [3]; BMS 0.02 μM) was 5.90 log10PFU/mL, the Viral titer (HSV-1 [3]; BMS 0.07 μM) was 5.87 log10PFU/mL and the Viral titer (HSV-1 [3]; BMS 0.21 μM) was 5.85 log10PFU/mL. The Viral titer (HSV-1 [3]; BMS 0.62 μM) was 5.76 log10PFU/mL, the Viral titer (HSV-1 [3]; BMS 1.85 μM) was 5.01 log10PFU/mL and the Viral titer (HSV-1 [3]; BMS 5.56 μM) was 3.40 log10PFU/mL. For the same molecule, the Viral titer (HSV-1 [3]; BMS 16.67 μM) was 2.60 log10PFU/mL, the Viral titer (HSV-1 [3]; BMS 50 μM) was 2.24 log10PFU/mL and the pIC50 (HSV-1 [3]; Human alphaherpesvirus 1, HSV-1 MOI 0.01, Vero cells, 48 h, plaque assay) was 6.02. It also gave a pIC50 (HSV-1 [4]) of 5.99, a pIC50 (HSV-1 [5]) of 6.74 and a CC50 at 72 h [6] of over 500 µM. For the same molecule, the CC50 at 72 h [7] was 189 µM, the Selective Index (HSV-2; CC50/IC50) was over 472 and the pIC50 (HSV-2; Human alphaherpesvirus 2, plaque assay) was 5.97. For the same molecule, the “production of progeny virions” value (HSV-1 [8]; pretreatment of the cells) was “significantly reduced”, the viral titer reduction (HSV-1 [8]; treatment started at 4 or 10 hpi until harvesting) was “less than one logarithm” and the “binding of HSV-1 to Vero cells” value (HSV-1 [9]) was “did not affect the binding”. For the same molecule, the “entry of HSV-1 to Vero cells” value (HSV-1 [10]; BMS at 0.5, 5, and 50 µM, 37 °C 30 min, MOI 10) was “did not affect the entry”, the “expression of ICP5 (IFA over 1-4 hpi)” value (HSV-1 [10]; Vero cells, MOI 10, 1, 2, 3, and 4 h at 37 °C) was “the expression of ICP5 was prevented” and the “transcripts of the IE gene ICP27, the E gene ICP8, and the L gene gD” value (HSV-1 IE, E, and L genes; MOI 0.01, qRT-PCR at 4, 8, and 20 hpi) was “concentration-dependently suppressed”. For the same molecule, the “protein levels of ICP4, ICP8, ICP5, and gB” value (HSV-1 IE, E, and L genes; Western blot at 24 hpi) was “reduced by BMS concentration-dependently”, the “intracellular HSV-1 DNA levels” value (HSV-1 DNA; Hirt method) was “decreases concentration-dependently” and the “virion-associated HSV-1 viral DNA levels” value (HSV-1 DNA; supernatant) was “reduced concentration-dependently”. For the same molecule, the “virus production (plaque assay)” value (HSV-1 [11]; 50 μM BMS at 5–10 and 10–15 hpi, MOI 0.1, 30 h of infection) was “significantly suppress virus production”, the “transcription of ICP27, ICP8, and gD” value (HSV-1 [11]; 50 μM BMS during 0–5, 5–10, 10–15, or 15–20 hpi, MOI 1, Vero cells) was “dramatically suppresses” and the pIC50 (cyclin B-dependent CDK1) was 8.22. For the same molecule, the pIC50 (cycle E-dependent CDK2) was 8.05.
With COc1ccc(CNc2nc(N(CCO)CCO)nc3c2ncn3C(C)C)cc1 [CVT-313] the CC50 (Vero cells) was 6.38 µM.
